Source: the supplement of paper PMC4862054
“And” between values parts separate entries of the source, which are not always exact repeats. Identical values can stand only once.

Assays:
Details in all cases: incubation time: 72 h
MFM-223 [1] = assay: normalised viability (% of control), CellTiter-Blue; higher = more viable cells (about 100 = DMSO control)
Protocol: (§1)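 DSRT, CellTiter-Blue viability, 72 h incubation. Signal is normalised to DMSO and benzethonium chloride controls. Value is the normalised response at dose 3.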

Hs578T = assay: as above
Protocol: as §1

HDQ-P1 [2] = assay: as above
Protocol: as §1

HCC1143 [3] = assay: as above
Protocol: as §1

CAL-51 [4] = assay: as above
Protocol: as §1

MDA-MB-468 [5] = assay: as above
Protocol: as §1

BT-474 [6] = assay: as above
Protocol: as §1

CAL-120 [7] = assay: as above
Protocol: as §1

HCC1937 = assay: as above
Protocol: as §1

DU-4475 [8] = assay: as above
Protocol: as §1

CAL-85-1 [9] = assay: as above
Protocol: as §1

SK-BR-3 [10] = assay: as above
Protocol: as §1

MDA-MB-231 [11] = assay: as above
Protocol: as §1

BT-549 [12] = assay: as above
Protocol: as §1

HCC1599 = assay: as above
Protocol: as §1

MDA-MB-436 = assay: as above
Protocol: as §1

MDA-MB-453 [13] = assay: as above
Protocol: as §1

CAL-148 [14] = assay: as above
Protocol: as §1

MFM-223 [15] = assay: normalised viability (% of control), CellTiter-Blue; higher = more viable cells (100 = DMSO, 0 = benzethonium chloride kill control)
How it was run: (§2)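 Vehicle (100) and a positive kill control (0) anchored the normalisation of each plate, and Z'-factor was used for quality control. Breast cancer cell lines in 20 µl suspension were incubated 72 h over compound in 5 µl medium in 384-well plates, followed by CellTiter-Blue at 560/590 nm. The value is normalised viability at a single listed concentration of the series.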

HDQ-P1 [16] = assay: as above
How it was run: as §2

HCC1143 [17] = assay: as above
How it was run: as §2

CAL-51 [18] = assay: as above
How it was run: as §2

MDA-MB-468 [19] = assay: as above
How it was run: as §2

BT-474 [20] = assay: as above
How it was run: as §2

CAL-120 [21] = assay: as above
How it was run: as §2

DU-4475 [22] = assay: as above
How it was run: as §2

CAL-85-1 [23] = assay: as above
How it was run: as §2

SK-BR-3 [24] = assay: as above
How it was run: as §2

MDA-MB-231 [25] = assay: as above
How it was run: as §2

BT-549 [26] = assay: as above
How it was run: as §2

MDA-MB-453 [27] = assay: as above
How it was run: as §2

CAL-148 [28] = assay: as above
How it was run: as §2

COc1cc2c(Oc3ccc4[nH]c(C)cc4c3F)ncnc2cc1OCCCN1CCCC1 [Cediranib]
normalised viability (MFM-223 [1]; 10 nM): 78.9% | normalised viability (Hs578T; 10 nM): 78.1% | normalised viability (HDQ-P1 [2]; 1 nM): 92.7% | normalised viability (HCC1143 [3]; 10 nM): 125% | normalised viability (CAL-51 [4]; 1 nM): 87.2% | normalised viability (MDA-MB-468 [5]; 10 nM): 103% | normalised viability (BT-474 [6]; 10 nM): 98.4% | normalised viability (CAL-120 [7]; 10 nM): 112% | normalised viability (HCC1937; 10 nM): 96.6% | normalised viability (DU-4475 [8]; 1 nM): 97.6% | normalised viability (CAL-85-1 [9]; 1 nM): 105% | normalised viability (SK-BR-3 [10]; 10 nM): 65.8% | normalised viability (MDA-MB-231 [11]; 10 nM): 82.1% | normalised viability (BT-549 [12]; 10 nM): 78.1% | normalised viability (HCC1599; 10 nM): 95.1% | normalised viability (MDA-MB-436; 10 nM): 92.9% | normalised viability (MDA-MB-453 [13]; 1 nM): 78.9% | normalised viability (CAL-148 [14]; 1 nM): 97.3% | normalised viability (MFM-223 [15]; 0.1 nM): 101% | normalised viability (HDQ-P1 [16]; 0.1 nM): 81.1% | normalised viability (HCC1143 [17]; 0.1 nM): 110% | normalised viability (CAL-51 [18]; 0.1 nM): 91.3% | normalised viability (MDA-MB-468 [19]; 0.1 nM): 95.8% | normalised viability (BT-474 [20]; 0.1 nM): 87.8% | normalised viability (CAL-120 [21]; 0.1 nM): 112% | normalised viability (DU-4475 [22]; 0.1 nM): 91.1% | normalised viability (CAL-85-1 [23]; 0.1 nM): 107% | normalised viability (SK-BR-3 [24]; 0.1 nM): 92.3% | normalised viability (MDA-MB-231 [25]; 0.1 nM): 94.4% | normalised viability (BT-549 [26]; 0.1 nM): 90.5% | normalised viability (MDA-MB-453 [27]; 0.1 nM): 82.5% | normalised viability (CAL-148 [28]; 0.1 nM): 109%

Cc1ccc(-c2cc(C(F)(F)F)nn2-c2ccc(S(N)(=O)=O)cc2)cc1 [Celecoxib]
normalised viability (MFM-223 [1]; 100 nM): 88.4% | normalised viability (Hs578T; 100 nM): 83.1% | normalised viability (HDQ-P1 [2]; 10 nM): 109% | normalised viability (HCC1143 [3]; 100 nM): 95.9% | normalised viability (CAL-51 [4]; 10 nM): 100% | normalised viability (MDA-MB-468 [5]; 100 nM): 111% | normalised viability (BT-474 [6]; 100 nM): 110% | normalised viability (CAL-120 [7]; 100 nM): 91.1% | normalised viability (HCC1937; 100 nM): 94.9% | normalised viability (DU-4475 [8]; 10 nM): 96.9% | normalised viability (CAL-85-1 [9]; 10 nM): 76.9% | normalised viability (SK-BR-3 [10]; 100 nM): 83.3% | normalised viability (MDA-MB-231 [11]; 100 nM): 89% | normalised viability (BT-549 [12]; 100 nM): 108% | normalised viability (HCC1599; 100 nM): 90.2% | normalised viability (MDA-MB-436; 100 nM): 92.3% | normalised viability (MDA-MB-453 [13]; 10 nM): 103% | normalised viability (CAL-148 [14]; 10 nM): 97.2% | normalised viability (MFM-223 [15]; 1 nM): 98.5% | normalised viability (HDQ-P1 [16]; 1 nM): 114% | normalised viability (HCC1143 [17]; 1 nM): 90.7% | normalised viability (CAL-51 [18]; 1 nM): 91.3% | normalised viability (MDA-MB-468 [19]; 1 nM): 102% | normalised viability (BT-474 [20]; 1 nM): 76.1% | normalised viability (CAL-120 [21]; 1 nM): 78.3% | normalised viability (DU-4475 [22]; 1 nM): 89% | normalised viability (CAL-85-1 [23]; 1 nM): 86.8% | normalised viability (SK-BR-3 [24]; 1 nM): 75.2% | normalised viability (MDA-MB-231 [25]; 1 nM): 117% | normalised viability (BT-549 [26]; 1 nM): 90.7% | normalised viability (MDA-MB-453 [27]; 1 nM): 97.3% | normalised viability (CAL-148 [28]; 1 nM): 95.4%

Nc1ncn([C@H]2C[C@H](O)[C@@H](CO)O2)c(=O)n1 [Decitabine]
normalised viability (MFM-223 [1]; 100 nM): 79% and 95.3% | normalised viability (Hs578T; 100 nM): 85.2% and 99.2% | normalised viability (HDQ-P1 [2]; 10 nM): 109% and 95.9% | normalised viability (HCC1143 [3]; 100 nM): 82.4% and 79.1% | normalised viability (CAL-51 [4]; 10 nM): 112% and 102% | normalised viability (MDA-MB-468 [5]; 100 nM): 32.4% and 32.1% | normalised viability (BT-474 [6]; 100 nM): 87.1% and 95.7% | normalised viability (CAL-120 [7]; 100 nM): 85.2% and 84.4% | normalised viability (HCC1937; 100 nM): 101% and 108% | normalised viability (DU-4475 [8]; 10 nM): 98.1% and 117% | normalised viability (CAL-85-1 [9]; 10 nM): 96% and 100% | normalised viability (MDA-MB-231 [11]; 100 nM): 86.7% and 95% | normalised viability (BT-549 [12]; 100 nM): 102% and 98.4% | normalised viability (HCC1599; 100 nM): 108% and 99.9% | normalised viability (MDA-MB-436; 100 nM): 89.6% and 90.8% | normalised viability (MDA-MB-453 [13]; 10 nM): 90.9% and 113% | normalised viability (CAL-148 [14]; 10 nM): 87.3% and 90% | normalised viability (MFM-223 [15]; 1 nM): 82.4% and 104% | normalised viability (HDQ-P1 [16]; 1 nM): 114% and 108% | normalised viability (HCC1143 [17]; 1 nM): 88.1% and 95.7% | normalised viability (CAL-51 [18]; 1 nM): 113% and 104% | normalised viability (MDA-MB-468 [19]; 1 nM): 96.6% and 98.9% | normalised viability (BT-474 [20]; 1 nM): 98.4% and 79.8% | normalised viability (CAL-120 [21]; 1 nM): 84.8% and 82.6% | normalised viability (DU-4475 [22]; 1 nM): 102% and 101% | normalised viability (CAL-85-1 [23]; 1 nM): 81.4% and 95.5% | normalised viability (SK-BR-3 [24]; 1 nM): 82% and 93.2% | normalised viability (MDA-MB-231 [25]; 1 nM): 111% and 91.6% | normalised viability (BT-549 [26]; 1 nM): 110% and 109% | normalised viability (MDA-MB-453 [27]; 1 nM): 93% and 107%
